Laboratory results: paper PMC8199946

Columns and labels:
[1] = macrolactonisation by intramolecular SN2 of carboxylate on C6 sulfonate (tosylate; one brosylate, one chloride) of glucosamine derivative, K2CO3 2 equiv; details: DMF, 10.0 mM, 75.0 °C
[2] = macrolactonisation by intramolecular SN2 of carboxylate on C6 tosylate of GlcNAc derivative, K2CO3 2 equiv; details: MeCN, 6.0 mM, 75.0 °C

`CC(=O)N[C@H]1[C@H]2OCCn3cc(nn3)CCCCCCCCC(=O)OC[C@@H](O2)[C@@H](OC(=O)c2ccccc2)[C@@H]1OC(=O)c1ccccc1` [8a -> LM28, OBs] gave a ring closure, isolated yield ([1]; from CC(=O)N[C@H]1[C@@H](OCCn2cc(CCCCCCCCC(=O)O)nn2)O[C@H](COS(=O)(=O)c2ccc(Br)cc2)[C@@H](OC(=O)c2ccccc2)[C@@H]1OC(=O)c1ccccc1, 20-membered ring, 5.0 h) of 72%.

Work on `CC(=O)N[C@H]1[C@H]2OCCn3cc(nn3)CCCCCCCCC(=O)OC[C@@H](O2)[C@@H](OC(=O)c2ccccc2)[C@@H]1OC(=O)c1ccccc1` [8b -> LM28, Cl] yielded a ring closure, isolated yield ([1]; from CC(=O)N[C@H]1[C@@H](OCCn2cc(CCCCCCCCC(=O)O)nn2)O[C@H](CCl)[C@@H](OC(=O)c2ccccc2)[C@@H]1OC(=O)c1ccccc1, 20-membered ring, 5.0 h) of 67%.

With `CC(=O)N[C@H]1[C@H]2OCCn3cc(nn3)CCCCCCCCC(=O)OC[C@@H](O2)[C@@H](OC(=O)c2ccccc2)[C@@H]1OC(=O)c1ccccc1` [8c -> 13c (LM28), OTs] the ring closure, isolated yield ([1]; from CC(=O)N[C@H]1[C@@H](OCCn2cc(CCCCCCCCC(=O)O)nn2)O[C@H](COS(=O)(=O)c2ccc(C)cc2)[C@@H](OC(=O)c2ccccc2)[C@@H]1OC(=O)c1ccccc1, 20-membered ring, 3.0 h) was 82%.

Work on `CC(=O)N[C@H]1[C@H]2OCCn3cc(nn3)CCCCCCCCC(=O)OC[C@@H](O2)[C@@H](OC(=O)c2ccccc2)[C@@H]1OC(=O)c1ccccc1` [8c -> LM28 (13c)] yielded a ring closure, isolated yield ([2]; from CC(=O)N[C@H]1[C@@H](OCCn2cc(CCCCCCCCC(=O)O)nn2)O[C@H](COS(=O)(=O)c2ccc(C)cc2)[C@@H](OC(=O)c2ccccc2)[C@@H]1OC(=O)c1ccccc1, 20-membered ring, 6.0 h) of 77%.

Work on `CC(=O)N[C@H]1[C@H]2OCCn3cc(nn3)CCCCC(=O)OC[C@@H](O2)[C@@H](OC(=O)c2ccccc2)[C@@H]1OC(=O)c1ccccc1` [11a -> 13a (LM24)] yielded a ring closure, isolated yield ([1]; from CC(=O)N[C@H]1[C@@H](OCCn2cc(CCCCC(=O)O)nn2)O[C@H](COS(=O)(=O)c2ccc(C)cc2)[C@@H](OC(=O)c2ccccc2)[C@@H]1OC(=O)c1ccccc1, 16-membered ring, 2.0 h) of 88%.

With `CC(=O)N[C@H]1[C@H]2OCCn3cc(nn3)CCCCCCC(=O)OC[C@@H](O2)[C@@H](OC(=O)c2ccccc2)[C@@H]1OC(=O)c1ccccc1` [11b -> 13b (LM26)] the ring closure, isolated yield ([1]; from CC(=O)N[C@H]1[C@@H](OCCn2cc(CCCCCCC(=O)O)nn2)O[C@H](COS(=O)(=O)c2ccc(C)cc2)[C@@H](OC(=O)c2ccccc2)[C@@H]1OC(=O)c1ccccc1, 18-membered ring, 5.0 h) was 76%.

With `CC(=O)N[C@H]1[C@H]2OCCCn3cc(nn3)CCCCC(=O)OC[C@@H](O2)[C@@H](OC(=O)c2ccccc2)[C@@H]1OC(=O)c1ccccc1` [12a -> 14a (LM34)] the ring closure, isolated yield ([1]; from CC(=O)N[C@H]1[C@@H](OCCCn2cc(CCCCC(=O)O)nn2)O[C@H](COS(=O)(=O)c2ccc(C)cc2)[C@@H](OC(=O)c2ccccc2)[C@@H]1OC(=O)c1ccccc1, 17-membered ring, 2.0 h) was 88%.

In the case of `CC(=O)N[C@H]1[C@H]2OCCCn3cc(nn3)CCCCCCC(=O)OC[C@@H](O2)[C@@H](OC(=O)c2ccccc2)[C@@H]1OC(=O)c1ccccc1` [12b -> 14b (LM36)], the ring closure, isolated yield ([1]; from CC(=O)N[C@H]1[C@@H](OCCCn2cc(CCCCCCC(=O)O)nn2)O[C@H](COS(=O)(=O)c2ccc(C)cc2)[C@@H](OC(=O)c2ccccc2)[C@@H]1OC(=O)c1ccccc1, 19-membered ring, 2.0 h) is reported as 83%.

In the case of `CC(=O)N[C@H]1[C@H]2OCCCn3cc(nn3)CCCCCCCCC(=O)OC[C@@H](O2)[C@@H](OC(=O)c2ccccc2)[C@@H]1OC(=O)c1ccccc1` [12c -> 14c (LM38)], the ring closure, isolated yield ([1]; from CC(=O)N[C@H]1[C@@H](OCCCn2cc(CCCCCCCCC(=O)O)nn2)O[C@H](COS(=O)(=O)c2ccc(C)cc2)[C@@H](OC(=O)c2ccccc2)[C@@H]1OC(=O)c1ccccc1, 21-membered ring, 2.0 h) is reported as 83%.

With `CC(=O)N[C@H]1[C@H]2OCCn3cc(nn3)CCCCc3cn(nn3)CCC(=O)OC[C@@H](O2)[C@@H](OC(=O)c2ccccc2)[C@@H]1OC(=O)c1ccccc1` [15a -> 16a (DM24)] the ring closure, isolated yield ([2]; from CC(=O)N[C@H]1[C@@H](OCCn2cc(CCCCc3cn(CCC(=O)O)nn3)nn2)O[C@H](COS(=O)(=O)c2ccc(C)cc2)[C@@H](OC(=O)c2ccccc2)[C@@H]1OC(=O)c1ccccc1, 21-membered ring, 11.0 h) was 77% and the ring closure, isolated yield ([1]; from CC(=O)N[C@H]1[C@@H](OCCn2cc(CCCCc3cn(CCC(=O)O)nn3)nn2)O[C@H](COS(=O)(=O)c2ccc(C)cc2)[C@@H](OC(=O)c2ccccc2)[C@@H]1OC(=O)c1ccccc1, 21-membered ring, 4.0 h) was 90%.

In the case of `CC(=O)N[C@H]1[C@H]2OCCn3cc(nn3)CCCCCc3cn(nn3)CCC(=O)OC[C@@H](O2)[C@@H](OC(=O)c2ccccc2)[C@@H]1OC(=O)c1ccccc1` [15b -> 16b (DM25)], the ring closure, isolated yield ([2]; from CC(=O)N[C@H]1[C@@H](OCCn2cc(CCCCCc3cn(CCC(=O)O)nn3)nn2)O[C@H](COS(=O)(=O)c2ccc(C)cc2)[C@@H](OC(=O)c2ccccc2)[C@@H]1OC(=O)c1ccccc1, 22-membered ring, 14.0 h) is reported as 71% and the ring closure, isolated yield ([1]; from CC(=O)N[C@H]1[C@@H](OCCn2cc(CCCCCc3cn(CCC(=O)O)nn3)nn2)O[C@H](COS(=O)(=O)c2ccc(C)cc2)[C@@H](OC(=O)c2ccccc2)[C@@H]1OC(=O)c1ccccc1, 22-membered ring, 2.0 h) is reported as 88%.

`CC(=O)N[C@H]1[C@H]2OCCCn3cc(nn3)CCCCc3cn(nn3)CCC(=O)OC[C@@H](O2)[C@@H](OC(=O)c2ccccc2)[C@@H]1OC(=O)c1ccccc1` [15c -> 16c (DM34)] gave a ring closure, isolated yield ([2]; from CC(=O)N[C@H]1[C@@H](OCCCn2cc(CCCCc3cn(CCC(=O)O)nn3)nn2)O[C@H](COS(=O)(=O)c2ccc(C)cc2)[C@@H](OC(=O)c2ccccc2)[C@@H]1OC(=O)c1ccccc1, 22-membered ring, 14.0 h) of 78% and a ring closure, isolated yield ([1]; from CC(=O)N[C@H]1[C@@H](OCCCn2cc(CCCCc3cn(CCC(=O)O)nn3)nn2)O[C@H](COS(=O)(=O)c2ccc(C)cc2)[C@@H](OC(=O)c2ccccc2)[C@@H]1OC(=O)c1ccccc1, 22-membered ring, 2.0 h) of 85%.

Work on `CC(=O)N[C@H]1[C@H]2OCCCn3cc(nn3)CCCCCc3cn(nn3)CCC(=O)OC[C@@H](O2)[C@@H](OC(=O)c2ccccc2)[C@@H]1OC(=O)c1ccccc1` [15d -> 16d (DM35)] yielded a ring closure, isolated yield ([2]; from CC(=O)N[C@H]1[C@@H](OCCCn2cc(CCCCCc3cn(CCC(=O)O)nn3)nn2)O[C@H](COS(=O)(=O)c2ccc(C)cc2)[C@@H](OC(=O)c2ccccc2)[C@@H]1OC(=O)c1ccccc1, 23-membered ring, 15.0 h) of 74% and a ring closure, isolated yield ([1]; from CC(=O)N[C@H]1[C@@H](OCCCn2cc(CCCCCc3cn(CCC(=O)O)nn3)nn2)O[C@H](COS(=O)(=O)c2ccc(C)cc2)[C@@H](OC(=O)c2ccccc2)[C@@H]1OC(=O)c1ccccc1, 23-membered ring, 3.0 h) of 78%.

Work on `CO[C@H]1O[C@@H]2COC(=O)CCCCCCCCc3cn(nn3)CC(=O)N[C@@H]1[C@@H](OC(=O)c1ccccc1)[C@@H]2OC(=O)c1ccccc1` [21 -> 22 (C2ML)] yielded a ring closure, isolated yield ([1]; from CO[C@H]1O[C@H](COS(=O)(=O)c2ccc(C)cc2)[C@@H](OC(=O)c2ccccc2)[C@H](OC(=O)c2ccccc2)[C@H]1NC(=O)Cn1cc(CCCCCCCCC(=O)O)nn1, 21-membered ring, 2.0 h) of 80%.

`CO[C@H]1O[C@@H]2COC(=O)CCn3cc(nn3)CCCCc3cn(nn3)CC(=O)N[C@@H]1[C@@H](OC(=O)c1ccccc1)[C@@H]2OC(=O)c1ccccc1` [23 -> 24 (C2DLM)] showed a ring closure, isolated yield ([1]; from CO[C@H]1O[C@H](COS(=O)(=O)c2ccc(C)cc2)[C@@H](OC(=O)c2ccccc2)[C@H](OC(=O)c2ccccc2)[C@H]1NC(=O)Cn1cc(CCCCc2cn(CCC(=O)O)nn2)nn1, 22-membered ring, 2.0 h) of 77%.
